In ChEMBL document CHEMBL3860065, “Synthesis and biological evaluation of azole-diphenylpyrimidine derivatives (AzDPPYs) as potent T790M mutant form of epidermal growth factor receptor inhibitors” (Bioorg Med Chem, 2016):

What was measured:
[1] = biological target: Epidermal growth factor receptor (Homo sapiens, UniProt P00533); assay type: ADME, cell-based, Sf9
Description: Inhibition of human recombinant N-terminal GST-tagged wild type EGFR cytoplasmic domain (695 end residues) autophosphorylation expressed in baculovirus infected Sf9 insect cells by ADP-Glo luminescence assay

NCI-H1975 [2] = test: Induction of apoptosis in human NCI-H1975 cells harboring L858R/T790M double mutant assessed as early apoptotic cells at 200 nM after 48 hrs by annexin V-FITC/PI staining based flow cytometric analysis (reference value: 2%); assay type: functional
NCI-H1975 [3] = test: Induction of apoptosis in human NCI-H1975 cells harboring L858R/T790M double mutant assessed as viable cells at 200 nM after 48 hrs by annexin V-FITC/PI staining based flow cytometric analysis (reference value: 94.2%); assay type: functional; conditions: NCI-H1975, 48 h, read-out: Activity
[4] = system: Epidermal growth factor receptor (Homo sapiens), P00533 [L858R,T790M]; test: Potency index, ratio of rociletinib IC50 to compound IC50 for human recombinant N-terminal GST-tagged EGFR T790M/L858R double mutant cytoplasmic domain (695 end residues) autophosphorylation expressed in baculovirus infected Sf9 insect cells
[5] = Antiproliferative activity against NHBE cells after 48 hrs by MTT assay; assay type: ADME, cell-based; conditions: Homo sapiens
NCI-H1975 [6] = test: Induction of apoptosis in human NCI-H1975 cells harboring L858R/T790M double mutant assessed as early apoptotic cells at 50 nM after 48 hrs by annexin V-FITC/PI staining based flow cytometric analysis (reference value: 2%); assay type: functional
NCI-H1975 [7] = test: Induction of apoptosis in human NCI-H1975 cells harboring L858R/T790M double mutant assessed as late apoptotic cells at 200 nM after 48 hrs by annexin V-FITC/PI staining based flow cytometric analysis (reference value: 3.4%); assay type: functional
NCI-H1975 [8] = test: Induction of apoptosis in human NCI-H1975 cells harboring L858R/T790M double mutant assessed as viable cells at 500 nM after 48 hrs by annexin V-FITC/PI staining based flow cytometric analysis (reference value: 94.2%); assay type: functional; conditions: NCI-H1975, 48 h, read-out: Activity
NCI-H1975 [9] = test: Induction of apoptosis in human NCI-H1975 cells harboring L858R/T790M double mutant assessed as early apoptotic cells at 500 nM after 48 hrs by annexin V-FITC/PI staining based flow cytometric analysis (reference value: 2%); assay type: functional
NCI-H1975 [10] = test: Induction of apoptosis in human NCI-H1975 cells harboring L858R/T790M double mutant assessed as necrotic cells at 200 nM after 48 hrs by annexin V-FITC/PI staining based flow cytometric analysis (reference value: 0.4%); assay type: functional
NCI-H1975 [11] = test: Induction of apoptosis in human NCI-H1975 cells harboring L858R/T790M double mutant assessed as late apoptotic cells at 500 nM after 48 hrs by annexin V-FITC/PI staining based flow cytometric analysis (reference value: 3.4%); assay type: functional
[12] = Antiproliferative activity against human A549 cells harboring K-ras mutation after 48 hrs by MTT assay; assay type: functional, cell-based; conditions: A549, 48 h
NCI-H1975 [13] = test: Induction of apoptosis in human NCI-H1975 cells harboring L858R/T790M double mutant assessed as necrotic cells at 500 nM after 48 hrs by annexin V-FITC/PI staining based flow cytometric analysis (reference value: 0.4%); assay type: functional
[14] = biological target: Epidermal growth factor receptor (Homo sapiens, UniProt P00533, L858R/T790M); test: biochemical; assay type: cell-based, Sf9
NCI-H1975 [15] = test: Induction of apoptosis in human NCI-H1975 cells harboring L858R/T790M double mutant assessed as necrotic cells at 50 nM after 48 hrs by annexin V-FITC/PI staining based flow cytometric analysis (reference value: 0.4%); assay type: functional
NCI-H1975 [16] = test: Induction of apoptosis in human NCI-H1975 cells harboring L858R/T790M double mutant assessed as late apoptotic cells at 50 nM after 48 hrs by annexin V-FITC/PI staining based flow cytometric analysis (reference value: 3.4%); assay type: functional
[17] = human
cells = assay type: functional, cell-based; conditions: Homo sapiens, NCI-H1975, 48 h
NCI-H1975 [18] = test: Induction of apoptosis in human NCI-H1975 cells harboring L858R/T790M double mutant assessed as viable cells at 50 nM after 48 hrs by annexin V-FITC/PI staining based flow cytometric analysis (reference value: 94.2%); assay type: functional; conditions: NCI-H1975, 48 h, read-out: Activity
NCI-H1975 [19] = test: Induction of apoptosis in human NCI-H1975 cells harboring L858R/T790M double mutant after 48 hrs by annexin V-FITC/PI staining based flow cytometric analysis; assay type: functional, cell-based
[20] = Antiproliferative activity against wild type human A431 cells after 48 hrs by MTT assay; assay type: functional, cell-based; conditions: A-431, 48 h
NCI-H1975 [21] = test: Potency index, ratio of gefitinib IC50 to compound IC50 against human NCI-H1975 cells harboring L858R/T790M double mutant; assay type: functional

Structure (SMILES) | IC50 [1] | IC50 [5] | IC50 [12] | IC50 [14] | IC50 [17] | IC50 (cells) | IC50 [20] | also measured
C=CC(=O)Nc1cccc(Nc2nc(Nc3ccc(Cn4ccnc4)cc3)ncc2Cl)c1 | 1000 nM | > 40000 nM | 2730 nM | 3.3 nM | 299 nM | 118 nM | 733 nM | Activity (NCI-H1975 [2]): 24.3%; viability at 0.2 µM (NCI-H1975 [3]): 71.3%; Ratio IC50 [4]: 8; Activity (NCI-H1975 [6]): 16.3%; Activity (NCI-H1975 [7]): 4.2%; viability at 0.5 µM (NCI-H1975 [8]): 39.6%; Activity (NCI-H1975 [9]): 56.7%; Activity (NCI-H1975 [10]): 0.1%; Activity (NCI-H1975 [11]): 3.7%; Activity (NCI-H1975 [13]): 0.1%; Activity (NCI-H1975 [15]): 0.1%; Activity (NCI-H1975 [16]): 2.6%; viability at 0.05 µM (NCI-H1975 [18]): 81%; Activity (NCI-H1975 [19]): Dose-dependent effect; Ratio IC50 (NCI-H1975 [21]): 10
C=CC(=O)Nc1cccc(Nc2nc(Nc3ccc(OCCn4cncn4)cc3)ncc2Cl)c1 | > 1000 nM | > 40000 nM | 10900 nM | 103 nM | > 9.67 nM | 2370 nM | 5950 nM | –
C=CC(=O)Nc1cccc(Nc2nc(Nc3ccc(-n4ccnc4)cc3)ncc2[N+](=O)[O-])c1 | > 1000 nM | > 40000 nM | > 40000 nM | 98.2 nM | > 10.2 nM | 12600 nM | 12400 nM | –
C=CC(=O)Nc1cccc(Nc2nc(Nc3ccc(NC(=O)Cn4ccnc4)cc3)ncc2[N+](=O)[O-])c1 | – | > 40000 nM | > 40000 nM | – | > 8.43 nM | 11500 nM | 16200 nM | –
C=CC(=O)Nc1cccc(Nc2nc(Nc3ccc(OCCn4ccnc4)cc3)ncc2Cl)c1 | > 1000 nM | 39200 nM | 8440 nM | 106 nM | > 9.43 nM | 391 nM | 1340 nM | –
C=CC(=O)Nc1cccc(Nc2nc(Nc3ccc(N4CCN(C(C)=O)CC4)cc3OC)ncc2C(F)(F)F)c1 [ROCILETINIB] | – | > 40000 nM | 6500 nM | – | 21.4 nM | 137 nM | 1290 nM | –
C=CC(=O)Nc1cccc(Nc2nc(Nc3ccc(OCCCn4ccnc4)cc3)ncc2[N+](=O)[O-])c1 | – | 39200 nM | 27400 nM | – | > 24.6 nM | 8320 nM | 6460 nM | –
C=CC(=O)Nc1cccc(Nc2nc(Nc3ccc(OCCn4ccnc4)cc3)ncc2F)c1 | > 1000 nM | 40000 nM | 8370 nM | 9.1 nM | > 110 nM | 1810 nM | 2480 nM | –
C=CC(=O)Nc1cccc(Nc2nc(Nc3ccc(Cn4ccnc4)cc3OC)ncc2Cl)c1 | 506 nM | > 40000 nM | 14300 nM | 109 nM | 4.64 nM | 932 nM | 6780 nM | –
C=CC(=O)Nc1cccc(Nc2nc(Nc3ccc(Cn4ccnc4)cc3)ncc2F)c1 | 987 nM | > 40000 nM | 3560 nM | 9 nM | 110 nM | 1720 nM | 152 nM | –
